In patent US20260258032A1, “TYROSINE KINASE 2 INHIBITORS AND USES THEREOF” (BIOGEN MA INC., priority 2022, published 2026):
Where a name gives a salt, the structure may show the parent alone.

The compounds below were run against T1, JH2 domain of human Tyk2 (Homo sapiens, UniProt P29597) (assay: JH2 biochemical assay (TR-FRET probe displacement)). Conditions: JH2 biochemical assay.
T1 construct: 10×His-tagged TYK2 JH2 domain (amino acid 575-876)
Format: binding
Procedure: The inhibitory potency of compounds of the disclosure against the kinase activity of recombinantly generated JH2 domain of human Tyk2 was evaluated in a plate-based assay using a TR-FRET assay platform. Briefly, 2 nM of recombinant JH2 domain [10×His-tagged TYK2 JH2 domain (amino acid 575-876)] was combined with 2 nM probe ((S)-6-amino-9-(2-carboxy-4-((1-(3-(8-methyl-5-(methylamino)-8H-imidazo[4,5-d]thiazolo[5,4-b]pyridin-2-yl)phenyl)ethyl)carbamoyl)phenyl)-3-iminio-5-sulfo-3H-xanthene-4-sulfonate), 0.1 nM Tb-labeled anti-His antibody, and compounds of disclosure for 60 minutes. Compounds are tested at either […] top concentration, 10 points of 3-fold dilution. The TR-FRET signal […] by compounds and signal was calculated by taking the ratio of fluorescence at 520 nm and 495 nm. The data was normalized and the percent activity versus log concentration of compound was fitted with a 4-parameter logistic model to generate IC50 curves.

T1 sequence (P29597 575-876): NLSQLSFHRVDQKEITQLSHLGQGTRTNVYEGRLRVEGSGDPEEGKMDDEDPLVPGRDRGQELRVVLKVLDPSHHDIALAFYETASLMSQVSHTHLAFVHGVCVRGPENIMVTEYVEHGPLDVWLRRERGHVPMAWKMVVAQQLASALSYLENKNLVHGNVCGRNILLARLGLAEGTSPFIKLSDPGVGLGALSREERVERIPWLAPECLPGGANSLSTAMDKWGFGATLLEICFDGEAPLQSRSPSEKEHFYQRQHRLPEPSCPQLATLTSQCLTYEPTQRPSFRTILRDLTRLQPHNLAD

Row | Compound | IC50 [µM]
1 | CC(=O)Nc1cc2c(cn1)C1(CC1)CN2c1cc(O[C@@H]2COC[C@H]2F)nc(C(C)(F)F)n1 (racemic) [Example 150, Trans-rac-N-(1′-(2-(1,1-difluoroethyl)-6-(((3RS,4R)-4-fluorotetrahydrofuran-3-yl)oxy)pyrimidin-4-yl)-1′,2′-dihydrospiro[cyclopropane-1,3′-pyrrolo[3,2-c]pyridin]-6′-yl)acetamide trifluoroacetate] | 0.01 to 0.1
2 | CC(=O)Nc1cc2c(cn1)C1(CC1)CN2c1ccnc(C2COC2)n1 [Example 3, N-(1′-(2-(oxetan-3-yl)pyrimidin-4-yl)-1′,2′-dihydrospiro[cyclopropane-1,3′-pyrrolo[3,2-c]pyridin]-6′-yl)acetamide] | 0.01 to 0.1
3 | CC(=O)Nc1cc2c(cn1)C1(CC1)CN2c1cc(NC(C)=O)nc(C(C)(F)F)n1 [Example 15, N-(1′-(6-acetamido-2-(1,1-difluoroethyl)pyrimidin-4-yl)-1′,2′-dihydrospiro[cyclopropane-1,3′-pyrrolo[3,2-c]pyridin]-6′-yl)acetamide] | ≤ 0.01
4 | CC(=O)Nc1cc2c(cn1)C1(CC1)CN2c1cc(C)ncn1 [Example 27, N-(1′-(6-methylpyrimidin-4-yl)-1′,2′-dihydrospiro[cyclopropane-1,3′-pyrrolo[3,2-c]pyridin]-6′-yl)acetamide] | 0.01 to 0.1
5 | CC(=O)Nc1cc2c(cn1)C1(CC1)CN2c1cc(C)nc2cc(C)nn12 [Example 28, N-(1′-(2,5-dimethylpyrazolo[1,5-a]pyrimidin-7-yl)-1′,2′-dihydrospiro[cyclopropane-1,3′-pyrrolo[3,2-c]pyridin]-6′-yl)acetamide] | ≥ 1
6 | CC(=O)Nc1cc2c(cn1)CCN2c1ccnc(C(C)(F)F)n1 [Example 30, N-(1-(2-(1,1-difluoroethyl)pyrimidin-4-yl)-2,3-dihydro-1H-pyrrolo[3,2-c]pyridin-6-yl)acetamide] | 0.1 to 1
7 | CC(=O)Nc1cc2c(cn1)CCN2c1cccc(C2CCOC2)n1 (stereo not drawn) [Example 33, N-(1-(6-(tetrahydrofuran-3-yl)pyridin-2-yl)-2,3-dihydro-1H-pyrrolo[3,2-c]pyridin-6-yl)acetamide] | 0.01 to 0.1
8 | CC(=O)Nc1cc2c(cn1)C1(CC1C)CN2c1nccc(C(C)(F)F)n1 (stereo not drawn) [Example 36, N-(1′-(4-(1,1-difluoroethyl)pyrimidin-2-yl)-2-methyl-1′,2′-dihydrospiro[cyclopropane-1,3′-pyrrolo[3,2-c]pyridin]-6′-yl)acetamide] | 0.01 to 0.1
9 | CC(=O)Nc1cc2c(cn1)C1(CCC1)CN2c1nccc(C(C)(F)F)n1 [Example 40, N-(1′-(4-(1,1-difluoroethyl)pyrimidin-2-yl)-1′,2′-dihydrospiro[cyclobutane-1,3′-pyrrolo[3,2-c]pyridin]-6′-yl)acetamide] | 0.01 to 0.1
10 | CC(=O)Nc1cc2c(cn1)C1(CCCC1)CN2c1nccc(C(C)(F)F)n1 [Example 43, N-(1′-(4-(1,1-difluoroethyl)pyrimidin-2-yl)-1′,2′-dihydrospiro[cyclopentane-1,3′-pyrrolo[3,2-c]pyridin]-6′-yl)acetamide] | 0.1 to 1
11 | CC(=O)Nc1cc2c(cn1)C1(CCCC1)CN2c1ccnc(C(C)(F)F)n1 [Example 44, N-(1′-(2-(1,1-difluoroethyl)pyrimidin-4-yl)-1′,2′-dihydrospiro[cyclopentane-1,3′-pyrrolo[3,2-c]pyridin]-6′-yl)acetamide] | 0.1 to 1
12 | CC(=O)Nc1cc2c(cn1)C1(CCCC1)CN2c1cccc(C(C)(F)F)n1 [Example 45, N-(1′-(6-(1,1-difluoroethyl)pyridin-2-yl)-1′,2′-dihydrospiro[cyclopentane-1,3′-pyrrolo[3,2-c]pyridin]-6′-yl)acetamide] | 0.1 to 1
13 | CC(=O)Nc1cc2c(cn1)C1(CCOCC1)CN2c1nccc(C(C)(F)F)n1 [Example 46, N-(1′-(4-(1,1-difluoroethyl)pyrimidin-2-yl)-1′,2,2′,3,5,6-hexahydrospiro[pyran-4,3′-pyrrolo[3,2-c]pyridin]-6′-yl)acetamide] | ≥ 1
14 | CC(=O)Nc1cc2c(cn1)C1(CCOCC1)CN2c1ccnc(C(C)(F)F)n1 [Example 47, N-(1′-(2-(1,1-difluoroethyl)pyrimidin-4-yl)-1′,2,2′,3,5,6-hexahydrospiro[pyran-4,3′-pyrrolo[3,2-c]pyridin]-6′-yl)acetamide] | ≥ 1
15 | CC(=O)Nc1cc2c(cn1)C1(CCOCC1)CN2c1cccc(C(C)(F)F)n1 [Example 48, N-(1′-(6-(1,1-difluoroethyl)pyridin-2-yl)-1′,2,2′,3,5,6-hexahydrospiro[pyran-4,3′-pyrrolo[3,2-c]pyridin]-6′-yl)acetamide] | 0.1 to 1
16 | CC(=O)Nc1cc2c(cn1)C1(CC1)CN2c1cc(C)nc(C)n1 [Example 68, N-(1′-(2,6-dimethylpyrimidin-4-yl)-1′,2′-dihydrospiro[cyclopropane-1,3′-pyrrolo[3,2-c]pyridin]-6′-yl)acetamide] | 0.01 to 0.1
17 | CC(=O)Nc1cc2c(cn1)C1(CC1)CN2c1nccs1 [Example 77, N-(1′-(thiazol-2-yl)-1′,2′-dihydrospiro[cyclopropane-1,3′-pyrrolo[3,2-c]pyridin]-6′-yl)acetamide trifluoroacetate] | 0.1 to 1
18 | CC(=O)Nc1cc2c(cn1)C1(CC1)CN2c1ncc(C)s1 [Example 78, N-(1′-(5-methylthiazol-2-yl)-1′,2′-dihydrospiro[cyclopropane-1,3′-pyrrolo[3,2-c]pyridin]-6′-yl)acetamide trifluoroacetate] | 0.01 to 0.1
19 | CC(=O)Nc1cc2c(cn1)C1(CC1)CN2c1cc(C)nc(C2CC3CCC2O3)n1 (stereo not drawn) [Example 102, N-(1′-(2-(7-oxabicyclo[2.2.1]heptan-2-yl)-6-methylpyrimidin-4-yl)-1′,2′-dihydrospiro[cyclopropane-1,3′-pyrrolo[3,2-c]pyridin]-6′-yl)acetamide trifluoroacetate] | 0.01 to 0.1
20 | CC(=O)Nc1cc2c(cn1)C1(CC1)CN2c1cc(C)nc(C2CCCN(C)C2)n1 (stereo not drawn) [Example 117, N-(1′-(6-methyl-2-(1-methylpiperidin-3-yl)pyrimidin-4-yl)-1′,2′-dihydrospiro[cyclopropane-1,3′-pyrrolo[3,2-c]pyridin]-6′-yl)acetamide] | ≥ 1
21 | CC(=O)Nc1cc2c(cn1)C1(CC1)CN2c1cc(C)nc(C2CCCCN2C)n1 (stereo not drawn) [Example 118, N-(1′-(6-methyl-2-(1-methylpiperidin-2-yl)pyrimidin-4-yl)-1′,2′-dihydrospiro[cyclopropane-1,3′-pyrrolo[3,2-c]pyridin]-6′-yl)acetamide] | ≥ 1
22 | CC(=O)Nc1cc2c(cn1)C1(CC1)CN2c1cc(C)nc(C2CCN(C(C)C)CC2)n1 [Example 121, N-(1′-(2-(1-isopropylpiperidin-4-yl)-6-methylpyrimidin-4-yl)-1′,2′-dihydrospiro[cyclopropane-1,3′-pyrrolo[3,2-c]pyridin]-6′-yl)acetamide] | ≥ 1
23 | COC(C)c1nccc(N2CC3(CC3)c3cnc(NC(C)=O)cc32)n1 (stereo not drawn) [Example 131, N-(1′-(2-(1-methoxyethyl)pyrimidin-4-yl)-1′,2′-dihydrospiro[cyclopropane-1,3′-pyrrolo[3,2-c]pyridin]-6′-yl)acetamide] | 0.01 to 0.1
24 | COC(C)(C)c1nccc(N2CC3(CC3)c3cnc(NC(C)=O)cc32)n1 [Example 132, N-(1′-(2-(2-methoxypropan-2-yl)pyrimidin-4-yl)-1′,2′-dihydrospiro[cyclopropane-1,3′-pyrrolo[3,2-c]pyridin]-6′-yl)acetamide] | 0.01 to 0.1
25 | CC(=O)Nc1cc2c(cn1)C1(CC1)CN2c1cc(C)[nH]c(=O)n1 [Example 134, N-(1′-(6-methyl-2-oxo-1,2-dihydropyrimidin-4-yl)-1′,2′-dihydrospiro[cyclopropane-1,3′-pyrrolo[3,2-c]pyridin]-6′-yl)acetamide] | ≥ 1
26 | CC(=O)Nc1cc2c(cn1)C1(CC1)CN2c1nc(C)cc(=O)[nH]1 [Example 135, N-(1′-(4-methyl-6-oxo-1,6-dihydropyrimidin-2-yl)-1′,2′-dihydrospiro[cyclopropane-1,3′-pyrrolo[3,2-c]pyridin]-6′-yl)acetamide] | ≥ 1
27 | CCN1CC(Oc2cc(N3CC4(CC4)c4cnc(NC(C)=O)cc43)nc(C(C)(F)F)n2)C1 [Example 148, N-(1′-(2-(1,1-difluoroethyl)-6-((1-ethylazetidin-3-yl)oxy)pyrimidin-4-yl)-1′,2′-dihydrospiro[cyclopropane-1,3′-pyrrolo[3,2-c]pyridin]-6′-yl)acetamide trifluoroacetate] | ≥ 1
28 | CC(=O)Nc1cc2c(cn1)C1(CC1)CN2c1cc(C)nc(N2CC(C#N)(CF)C2)n1 [Example 218, N-(1′-(2-(3-cyano-3-(fluoromethyl)azetidin-1-yl)-6-methylpyrimidin-4-yl)-1′,2′-dihydrospiro[cyclopropane-1,3′-pyrrolo[3,2-c]pyridin]-6′-yl)acetamide] | ≤ 0.01
29 | COC1CCCN(c2nc(C)cc(N3CC4(CC4)c4cnc(NC(C)=O)cc43)n2)C1 (stereo not drawn) [Example 230, N-(1′-(2-(3-methoxypiperidin-1-yl)-6-methylpyrimidin-4-yl)-1′,2′-dihydrospiro[cyclopropane-1,3′-pyrrolo[3,2-c]pyridin]-6′-yl)acetamide] | 0.1 to 1
30 | CC(=O)Nc1cc2c(cn1)C1(CC1)CN2c1cc(C)cc(-c2cn(C)nc2C(F)(F)F)n1 [Example 261, N-(1′-(4-methyl-6-(1-methyl-3-(trifluoromethyl)-1H-pyrazol-4-yl)pyridin-2-yl)-1′,2′-dihydrospiro[cyclopropane-1,3′-pyrrolo[3,2-c]pyridin]-6′-yl)acetamide trifluoroacetate] | ≥ 1
